Laboratory results as given in patent publication EP0179667B1, “N6-substituted adenosines” (priority 1984, dated 1986).
pIC50: −log10 of the molar value.

How the values were obtained:
adenosine A2 receptor = molecular target: T1, adenosine A2 receptor (Rattus norvegicus, UniProt P30543); test: Adenosine Receptor Binding - A2 Receptor Affinity (RBA2); settings: [3H]NECA, rat striatal membranes; read-out: RBA-2
T1 construct: 5 mg original tissue weight of rat weight of rat striatal membranes; tissue Pel-Freez (Rogers, Arkansas); host or cells: rat striatum, membrane preparation
T1 sequence (P30543 whole entry): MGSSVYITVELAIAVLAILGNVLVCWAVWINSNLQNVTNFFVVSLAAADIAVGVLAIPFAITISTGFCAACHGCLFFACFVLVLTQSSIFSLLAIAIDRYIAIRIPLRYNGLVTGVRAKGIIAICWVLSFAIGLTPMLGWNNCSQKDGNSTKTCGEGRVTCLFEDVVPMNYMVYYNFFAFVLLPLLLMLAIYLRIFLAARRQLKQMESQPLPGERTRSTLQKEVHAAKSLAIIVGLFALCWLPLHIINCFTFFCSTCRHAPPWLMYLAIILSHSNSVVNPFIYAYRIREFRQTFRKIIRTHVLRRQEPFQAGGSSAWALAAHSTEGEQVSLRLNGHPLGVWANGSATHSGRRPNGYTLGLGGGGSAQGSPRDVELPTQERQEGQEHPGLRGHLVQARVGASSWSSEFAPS
Protocol: Adenosine Receptor Binding - A2 Receptor Affinity (RBA2)
Brains from 200-500 g mixed sex Sprague-Dawley rats were purchased from Pel-Freez (Rogers, Arkansas). […] Brains were thawed and then kept on ice while the striata were dissected out. […] When needed, tissue was thawed at room temperature, disrupted in a Polytron, and kept on ice until used.
All incubations were for 60 minutes at 25°C in 12x75 mm glass tubes containing 1 ml Tris with 5 mg original tissue weight of rat weight of rat striatal membranes, 4 nM [^3H]-N-ethyl adenosine-5'-carboxamide ([^3H]NECA), 50 nM N^6-cyclopentyladenosine (to eliminate A1 receptor binding), 10 mM MgCl2, 0.1 units/ml of adenosine deaminase and 1% dimethylsulfoxide. N^6-Cyclopentyladenosine was dissolved at 10 mM in 0.02 N HCI and diluted in Tris. […] Test compounds were dissolved at 10 mM in dimethylsulfoxide on the same day as the experiment, and diluted in dimethylsulfoxide to 100x the final incubation concentration. […] [^3H]NECA was diluted to 40 nM in Tris. The membrane suspension (5 mg/0.79 ml) contained sufficient MgC12 and adenosine deaminase to give 10 mM and 0.1 units/ml, respectively, final concentration in the incubation. For test compounds with lC50 values less than 1 µM, the order of additions was test compound (10 µl), N^6-cyclopentyladenosine (100 µl), [^3H]NECA (100 µl), and membranes (0.79 ml). […] After all additions, the rack of tubes was vortexed, and the tubes were then incubated for 60 min at 25°C in a shaking water bath. The rack of tubes was vortexed an additional time halfway through the incubation.
incubations were terminated by filtration through 2.4 cm GF/B filters under reduced pressure. Each tube was filtered as follows: the contents of the tube were poured onto the filter, 4 ml of ice-cold Tris were added to the tube and the contents poured onto the filter, and the filter was washed twice with 4 ml of ice-cold Tris. The filtration was complete in about twelve seconds.
Nonspecific binding was defined as binding in the presence of 100 µM N^6-cyclopentyladenosine, and specific binding was defined as total binding minus nonspecific binding. The IC50 was calculated by weighed nonlinear least squares curve-fitting to the mass-action equation. [formula] • where Y is cpm bound • T is cpm total binding without drug • S is cpm specific binding without drug • D is the concentration of drug • and K is the IC50 of the drug Weighting factors were calculated under the assumption that the standard deviation was proportional to the predicted value of Y. Nonspecific binding was treated as a very large (infinite) concentration of drug in the computer analysis.

adenosine A1 receptor = molecular target: T2, adenosine A1 receptor (Rattus norvegicus, UniProt P25099); test: Adenosine Receptor Binding - A1 Receptor Affinity (RBA1); settings: [3H]-CHA, rat whole brain membranes; read-out: RBA-1
T2 construct: Whole brain minus cerebellum and brainstem from male Long Evans rats (150-200 g) was homogenized; from tissue; host or cells: rat whole brain minus cerebellum and brainstem, membrane homogenate
T2 sequence (P25099 1-326): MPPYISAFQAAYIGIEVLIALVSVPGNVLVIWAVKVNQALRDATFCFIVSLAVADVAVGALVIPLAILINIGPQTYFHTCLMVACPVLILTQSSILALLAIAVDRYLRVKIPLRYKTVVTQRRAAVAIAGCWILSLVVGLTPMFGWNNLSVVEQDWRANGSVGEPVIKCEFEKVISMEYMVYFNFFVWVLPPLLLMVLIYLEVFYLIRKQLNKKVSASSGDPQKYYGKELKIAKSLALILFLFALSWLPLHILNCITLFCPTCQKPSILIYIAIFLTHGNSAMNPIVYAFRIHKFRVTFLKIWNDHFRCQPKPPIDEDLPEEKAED
Protocol: Adenosine Receptor Binding - A1 Receptor Affinity (RBA1)
Whole brain minus cerebellum and brainstem from male Long Evans rats (150-200 g) was homogenized in 30 volumes of ice-cold 0.05 M Tris-HCI buffer pH 7.7 using a Brinkman Polytron PT-10 (setting number 6 for 20 seconds) and centrifuged for ten minutes at 20,000 x g (Sorvall RC-2), 4°C. The supernatant was discarded, and the pellet was resuspended and centrifuged as before. The pellet was resuspended in 20 ml Tris-HCI buffer containing two International Units/ml of adenosine deaminase (Sigma type III from calf intestinal mucosa), incubated at 37°C for 30 minutes, then subsequently at 0°C for ten minutes. The homogenate was again centrifuged, and the final pellet was resuspended in ice-cold 0.05 M Tris-HCI buffer pH 7.7 to a concentration of 20 mg/ml original wet tissue weight and used immediately.
Tissue homogenate (10 mg/ml) was incubated in 0.05 M Tris-HCI buffer pH 7.7 containing 1.0 nM [^3H]-N^6-cyclohexyladenosine (^3H]-CHA) with or without test agents in triplicate for one hour at 25°C. Incubation volume was 2 ml. Unbound [^3H]-CHA was separated by rapid filtration under reduced pressure through Whatman glass fiber (GF/B) filters. The filters were rinsed three times with 5 ml of ice cold 0.05 M Tris-HCI buffer pH 7.7. The radio-labeled ligand retained on the filter was measured by liquid scintillation spectrophotometry after shaking the filters for one hour or longer on a mechanical shaker in 10 ml of Beckman Ready Solv HP scintillation cocktail.
Nonspecific binding was defined as the binding which occurred in the presence of 1 mM thophylline. […] The Scatchard plot was calculated by linear regression of the line obtained by plotting the amount of radioligand bound (pmoles/gram of tissue) versus [formula] Since the amount of radioligand bound was a small fraction of the total amount added, free radioligand was defined as the concentration (nM) of radioligand added to the incubation mixture. The Hill coefficient was calculated by linear regression of the line obtained by plotting the log of the bound radioligand vs the log of the [formula] The maximal number of binding sites (Bmax) was calculated from the Scatchard plot.

Swiss-Webster male mice = test: Mouse Activity and Screen Test Procedure (MAST): locomotor activity in actophotometer; assay type: in vivo; settings: one hour prior to testing
Protocol: Nine unfasted Swiss-Webster male mice weighing 20-30 g equally divided into three groups for each drug dose to be tested. That is, data for each dose level was generated by three separated groups of three mice each. A minimum of three dose levels (10, 30, and 100 mg/kg) are tested for each drug. Treatments are administered intraperitoneally one hour prior to testing. All dosages are calculated as parent compound and given in volumes of 10 ml/kg. […] Control animals are injected with Methocel. […] The actophotometer consists of a cylindrical chamber whose center is occupied by another cylinder which contains the illumination for six photocells located on the perimeter of the chamber. Six light-beam interruptions equal one count. […] Data: The data obtained from the screen test are expressed as percent of mice falling off the screen. Data derived from locomotor activity of drug treated mice are compared to the activity of vehicle treated animals and are expressed as percent inhibition of spontaneous locomotion. All percentages reported for inhibition of locomotion (LI) are based upon data accumulated for one hour. […] An overall dose rating is obtained by the following criteria: LAD refers to the lowest dose at which an A rating is achieved. […] The compounds are identified in the Examples.

SMILES	pIC50 (adenosine A2 receptor)	pIC50 (adenosine A1 receptor)	Inhibition of mouse locomotor activity (Swiss-Webster male mice; 1 mg/kg intraperitoneally) [%]	Inhibition of mouse locomotor activity (Swiss-Webster male mice; 3 mg/kg intraperitoneally) [%]	Inhibition of mouse locomotor activity (Swiss-Webster male mice; 10 mg/kg intraperitoneally) [%]	Inhibition of mouse locomotor activity (Swiss-Webster male mice; 0.3 mg/kg intraperitoneally) [%]	Inhibition of mouse locomotor activity (Swiss-Webster male mice; 30 mg/kg intraperitoneally) [%]	Inhibition of mouse locomotor activity (Swiss-Webster male mice; 100 mg/kg intraperitoneally) [%]	Inhibition of mouse locomotor activity (Swiss-Webster male mice; 0.1 mg/kg intraperitoneally) [%]	Inhibition of mouse locomotor activity (Swiss-Webster male mice; 9.0 mg/kg intraperitoneally) [%]	Inhibition of mouse locomotor activity (Swiss-Webster male mice; 0.03 mg/kg intraperitoneally) [%]
COc1ccc2c(c1)C(Nc1ncnc3c1ncn3[C@@H]1O[C@H](CO)[C@@H](O)[C@H]1O)CCC2 (single isomer, unassigned) [Example 5, N6-[1-(7-Methoxy)-tetralinyl]-adenosine]	6.04	7.40	39	82	91	–	–	–	–	–	–
COc1ccc2c(c1)C(Nc1ncnc3c1ncn3[C@@H]1O[C@H](CO)[C@@H](O)[C@H]1O)CCC2 (single isomer, unassigned) [Example 8]	6.39	7.68	83	88	93	25	94	–	–	–	–
OC[C@H]1O[C@@H](n2cnc3c(NC4CCCc5ccccc54)ncnc32)C(O)[C@@H]1O (stereo in doubt) [Example 1, (R,S)-N^6-[1-Tetralinyl]-adenosine]	6.32	7.23	86	93	98	–	97	99	–	–	–
OC[C@H]1O[C@@H](n2cnc3c(NC4CCCc5ccccc54)ncnc32)[C@H](O)[C@@H]1O (stereo partly drawn) [Example 2, (R)-N^6-[1-Tetralinyl]-adenosine]	6.61	7.36	79	95	–	45	99	–	25	97	–
OC[C@H]1O[C@H](n2cnc3c(NC4CCCc5ccccc54)ncnc32)[C@H](O)[C@@H]1O (stereo partly drawn) [Example 3, (S)-N^6-[1-Tetralinyl]-adenosine]	5.69	6.39	30	69	95	34	96	–	40	–	–
CC1CCc2ccccc2C1Nc1ncnc2c1ncn2[C@@H]1O[C@H](CO)[C@@H](O)[C@H]1O (stereo partly drawn) [Example 4, N^6-[1-(2-Methyl)-tetralinyl]-adenosine]	6.28	7.72	–	–	97	70	99	99	1	–	3
COc1ccc2c(c1)CCCC2Nc1ncnc2c1ncn2[C@@H]1O[C@H](CO)[C@@H](O)[C@H]1O (stereo partly drawn) [Example 6, N^6-[1-(6-Methoxy)-tetralinyl]-adenosine]	5.36	6.90	22	3	62	–	94	99	–	–	–
COc1cccc2c1CCCC2Nc1ncnc2c1ncn2[C@@H]1O[C@H](CO)[C@@H](O)[C@H]1O (stereo partly drawn) [Example 7, N^6-[5-Methoxy-1-aminotetralin]-adenosine]	6.49	7.38	22	91	97	7	99	–	–	–	–
COc1ccc2c(c1)C(Nc1ncnc3c1ncn3[C@H]1O[C@H](CO)[C@@H](O)[C@H]1O)CCC2 (stereo partly drawn) [Example 9, (S)-N^6-(7-methoxy-1-tetralinyl)-adenosine]	4.30	5.34	–	−35	−11	–	−3	–	–	–	–
COc1cccc2c1CCC[C@@H]2Nc1ncnc2c1ncn2[C@@H]1O[C@H](CO)[C@@H](O)[C@H]1O [Example 10, (S)-N^6-[5-methoxy-1-aminotetralin]-adenosine]	6.66	7.72	65	88	95	−19	97	–	–	–	–
